Laboratory results taken from patent publication US20100105729A1, “ARYL-SUBSTITUTED HETEROCYCLIC PDE4 INHIBITORS AS ANTI-INFLAMMATORY AGENTS” (KALYPSYS, INC., priority 2006, published 2010).

Biological target: T1, PDE4B (Homo sapiens, UniProt Q07343)
T1 construct: hexa-histidine (His6) (N); made in house
Assay: PDE4 IMAP Assay
Assay type: biochemical
Settings: catalytic domain of PDE4B, fluorescence polarization
Text: Compounds may be screened for functional potency in in vitro biochemical assays for their ability to inhibit the activity of phosphodiesterase (PDE) enzymes. A commercial PDE assay, Molecular Device's PDE IMAP assay, was modified and utilized to measure the inhibitory activity of compounds on PDE isoforms. The IMAP technology is based on the high affinity binding of phosphate by immobilized metal (MIII) coordination complexes on nanoparticles. This IMAP “binding reagent” complexes with phosphate groups on the nucleotide monophosphates generated in the reaction. Such binding causes a change in the rate of the molecular motion of the nucleotide, and results in an increase in the fluorescence polarization value observed for the fluorescent label attached to the substrate. PDE inhibitors prevent the generation of nucleotide monophosphates and the subsequent increase in polarization value observed for the fluorescent label attached to the substrate. The catalytic domain of PDE4B was fused to an amino-terminus hex-histadine affinity tag and purified. PDE4B enzyme was incubated with compounds for 10 minutes. Fluorescently labeled cyclic AMP substrates were then added to the PDE enzyme mix and incubated for 2 hours at room temperature. IMAP binding reagent was then added to the enzyme mix, incubated for 10-30 minutes and fluorescent polarization of the fluorescently labeled substrate was read either with the Perkin Elmer Viewlux or Molecular Devices Acquest or Analyst. Roflumilast and Rolipram are the positive controls used in the assay.

T1 sequence (Q07343 330-659 limits assumed, species assumed): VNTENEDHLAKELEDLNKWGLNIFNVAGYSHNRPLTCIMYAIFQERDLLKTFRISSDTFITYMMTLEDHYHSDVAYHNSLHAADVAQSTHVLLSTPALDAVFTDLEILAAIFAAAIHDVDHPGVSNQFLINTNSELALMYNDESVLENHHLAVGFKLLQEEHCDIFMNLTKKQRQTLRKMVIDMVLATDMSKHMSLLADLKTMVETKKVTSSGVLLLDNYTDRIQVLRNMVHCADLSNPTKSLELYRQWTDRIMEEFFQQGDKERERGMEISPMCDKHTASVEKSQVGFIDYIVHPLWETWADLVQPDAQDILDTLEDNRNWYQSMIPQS

inhibition at 10 µM [%] | SMILES
< 50 | COc1ccc(C2=NN(C(=O)c3ccccc3)C(c3ccc(N(C)C)cc3)C2)cc1OC (stereo not shown) [Example 37, (3-(3,4-dimethoxyphenyl)-5-(4-(dimethylamino)phenyl)-4,5-dihydro-1H-pyrazol-1-yl)(phenyl)methanone]
< 50 | COc1ccc(C2=NN(C(=O)CCCC(=O)O)C(c3cccc(OC)c3OC)C2)cc1OC (stereo not shown) [Example 94, 5-(5-(2,3-dimethoxyphenyl)-3-(3,4-dimethoxyphenyl)-4,5-dihydro-1H-pyrazol-1-yl)-5-oxopentanoic acid]
< 50 | COc1ccc(C2=NN(C(=O)c3ccc(Br)o3)C(c3ccc(N(C)C)cc3)C2)cc1OC (stereo not shown) [Example 81, (5-bromofuran-2-yl)(3-(3,4-dimethoxyphenyl)-5-(4-(dimethylamino)phenyl)-4,5-dihydro-1H-pyrazol-1-yl)methanone]
≥ 50 | COc1ccc(C2=NN(C(=O)c3ccc(Br)o3)C(c3ccccc3)C2)cc1OC (stereo not shown) [Example 51, (5-bromofuran-2-yl)(3-(3,4-dimethoxyphenyl)-5-phenyl-4,5-dihydro-1H-pyrazol-1-yl)methanone]
< 50 | COc1ccc(C2=NN(C(=O)c3cc(OC)c(OC)c(OC)c3)C(c3ccc(OC)c(OC)c3)C2)cc1OC (stereo not shown) [Example 78, (3,5-bis(3,4-dimethoxyphenyl)-4,5-dihydro-1H-pyrazol-1-yl)(3,4,5-trimethoxyphenyl)methanone]
< 50 | COc1ccc(C2CC(c3ccc(OC)c(OC)c3)=NN2S(=O)(=O)c2ccc(C)cc2)cc1 (stereo not shown) [Example 92, 3-(3,4-dimethoxyphenyl)-5-(4-methoxyphenyl)-1-tosyl-4,5-dihydro-1H-pyrazole]
< 50 | COc1ccc(C2=NN(S(=O)(=O)c3ccccc3)C(c3ccc(F)cc3)C2)cc1OC (stereo not shown) [Example 54, 3-(3,4-dimethoxyphenyl)-5-(4-fluorophenyl)-1-(phenylsulfonyl)-4,5-dihydro-1H-pyrazole]
< 50 | COc1ccc(C2=NN(S(=O)(=O)c3ccc(C)cc3)C(c3ccccc3Cl)C2)cc1OC (stereo not shown) [Example 60, 5-(2-chlorophenyl)-3-(3,4-dimethoxyphenyl)-1-tosyl-4,5-dihydro-1H-pyrazole]
≥ 50 | COc1ccc(C2=NN(C(=O)c3ccc(Br)o3)C(c3ccc(Cl)cc3)C2)cc1OC (stereo not shown) [Example 47, (5-bromofuran-2-yl)(5-(4-chlorophenyl)-3-(3,4-dimethoxyphenyl)-4,5-dihydro-1H-pyrazol-1-yl)methanone]
< 50 | COc1ccc(C2CC(c3ccc(OC)c(OC)c3)=NN2S(C)(=O)=O)cc1 (stereo not shown) [Example 14, 3-(3,4-dimethoxyphenyl)-5-(4-methoxyphenyl)-1-(methylsulfonyl)-4,5-dihydro-1H-pyrazole]
< 50 | COc1ccc(C2=NN(C(=O)c3ccccc3Cl)C(c3cn(-c4ccccc4)nc3-c3ccccc3)C2)cc1OC (stereo not shown) [Example 26, (2-chlorophenyl)(3-(3,4-dimethoxyphenyl)-5-(1,3-diphenyl-1H-pyrazol-4-yl)-4,5-dihydro-1H-pyrazol-1-yl)methanone]
< 50 | CCc1ccc(C2CC(c3ccc(OC)c(OC)c3)=NN2C(=O)CCC(=O)O)cc1 (stereo not shown) [Example 19, 4-(3-(3,4-dimethoxyphenyl)-5-(4-ethylphenyl)-4,5-dihydro-1H-pyrazol-1-yl)-4-oxobutanoic acid]
< 50 | COc1ccc2cc(C3CC(c4ccc(OC)c(OC)c4)=NN3C(=O)CCC(=O)O)c(Cl)nc2c1 (stereo not shown) [Example 22, 4-(5-(2-chloro-7-methoxyquinolin-3-yl)-3-(3,4-dimethoxyphenyl)-4,5-dihydro-1H-pyrazol-1-yl)-4-oxobutanoic acid]
≥ 50 | COc1ccc(C2=NN(C(=O)c3ccc(Br)o3)C(c3ccc(C)cc3)C2)cc1OC (stereo not shown) [Example 48, (5-bromofuran-2-yl)(3-(3,4-dimethoxyphenyl)-5-p-tolyl-4,5-dihydro-1H-pyrazol-1-yl)methanone]
≥ 50 | COc1ccc(C2=NN(C(=O)c3cc(OC)c(OC)c(OC)c3)C(c3ccccc3F)C2)cc1OC (stereo not shown) [Example 79, (3-(3,4-dimethoxyphenyl)-5-(2-fluorophenyl)-4,5-dihydro-1H-pyrazol-1-yl)(3,4,5-trimethoxyphenyl)methanone]
≥ 50 | COc1ccc(C2=NN(C(=O)c3ccc(Br)o3)C(c3ccc(F)cc3)C2)cc1OC (stereo not shown) [Example 46, (5-bromofuran-2-yl)(3-(3,4-dimethoxyphenyl)-5-(4-fluorophenyl)-4,5-dihydro-1H-pyrazol-1-yl)methanone]

inhibition at 10 µM [%] | SMILES
< 50 | COc1ccc2cc(C3CC(c4ccc(OC)c(OC)c4)=NN3C(=O)CCCC(=O)O)c(Cl)nc2c1 (stereo not shown) [Example 17, 5-(5-(2-chloro-7-methoxyquinolin-3-yl)-3-(3,4-dimethoxyphenyl)-4,5-dihydro-1H-pyrazol-1-yl)-5-oxopentanoic acid]
< 50 | COc1ccc(C2=NN(S(=O)(=O)c3ccccc3)C(c3cn(-c4ccccc4)nc3-c3ccccc3)C2)cc1OC (stereo not shown) [Example 25, 4-(3-(3,4-dimethoxyphenyl)-1-(phenylsulfonyl)-4,5-dihydro-1H-pyrazol-5-yl)-1,3-diphenyl-1H-pyrazole]
< 50 | COc1ccc(C2=NN(S(=O)(=O)c3ccc(C)cc3)C(c3ccc(OC)c(OC)c3)C2)cc1OC (stereo not shown) [Example 87, 3,5-bis(3,4-dimethoxyphenyl)-1-tosyl-4,5-dihydro-1H-pyrazole]
< 50 | COc1ccc(C2CC(c3ccc(OC)c(OC)c3)=NN2C(=O)CCCC(=O)O)cc1 (stereo not shown) [Example 66, 5-(3-(3,4-dimethoxyphenyl)-5-(4-methoxyphenyl)-4,5-dihydro-1H-pyrazol-1-yl)-5-oxopentanoic acid]
< 50 | COc1ccc(C2=NN(S(=O)(=O)c3ccc(C)cc3)C(c3ccc(C)cc3)C2)cc1OC (stereo not shown) [Example 57, 3-(3,4-dimethoxyphenyl)-5-p-tolyl-1-tosyl-4,5-dihydro-1H-pyrazole]
< 50 | COc1ccc(C2=NN(C(C)=O)C(c3cc4ccc(C)cc4nc3Cl)C2)cc1OC (stereo not shown) [Example 75, 1-(5-(2-chloro-7-methylquinolin-3-yl)-3-(3,4-dimethoxyphenyl)-4,5-dihydro-1H-pyrazol-1-yl)ethanone]
< 50 | COc1ccc(C2=NN(C(=O)CCCC(=O)O)C(c3cccs3)C2)cc1OC (stereo not shown) [Example 1, 5-(3-(3,4-dimethoxyphenyl)-5-(thiophen-2-yl)-4,5-dihydro-1H-pyrazol-1-yl)-5-oxopentanoic acid]
< 50 | COc1ccc(C2=NN(C(C)=O)C(c3cc4cc(C)ccc4nc3Cl)C2)cc1OC (stereo not shown) [Example 74, 1-(5-(2-chloro-6-methylquinolin-3-yl)-3-(3,4-dimethoxyphenyl)-4,5-dihydro-1H-pyrazol-1-yl)ethanone]
< 50 | COc1ccc(C2=NN(C(=O)c3cccs3)C(c3ccccc3Cl)C2)cc1OC (stereo not shown) [Example 39, (5-(2-chlorophenyl)-3-(3,4-dimethoxyphenyl)-4,5-dihydro-1H-pyrazol-1-yl)(thiophen-2-yl)methanone]
< 50 | COc1ccc(C2=NN(S(=O)(=O)c3ccc(C)cc3)C(c3ccc(N(C)C)cc3)C2)cc1OC (stereo not shown) [Example 85, 4-(3-(3,4-dimethoxyphenyl)-1-tosyl-4,5-dihydro-1H-pyrazol-5-yl)-N,N-dimethylaniline]
< 50 | COc1ccc(C2=NN(C(=O)CCC(=O)O)C(c3cccc(OC)c3OC)C2)cc1OC (stereo not shown) [Example 69, 4-(5-(2,3-dimethoxyphenyl)-3-(3,4-dimethoxyphenyl)-4,5-dihydro-1H-pyrazol-1-yl)-4-oxobutanoic acid]
< 50 | COc1ccc(C2=NN(C(=O)c3cc(OC)c(OC)c(OC)c3)C(c3ccccc3OC)C2)cc1OC (stereo not shown) [Example 80, (3-(3,4-dimethoxyphenyl)-5-(2-methoxyphenyl)-4,5-dihydro-1H-pyrazol-1-yl)(3,4,5-trimethoxyphenyl)methanone]
< 50 | COc1ccc(C2=NN(S(=O)(=O)c3ccccc3)C(c3ccccc3)C2)cc1OC (stereo not shown) [Example 63, 3-(3,4-dimethoxyphenyl)-5-phenyl-1-(phenylsulfonyl)-4,5-dihydro-1H-pyrazole]
< 50 | COc1ccc(C2=NN(C(=O)c3ccc(Br)o3)C(c3ccccc3Cl)C2)cc1OC (stereo not shown) [Example 50, (5-bromofuran-2-yl)(5-(2-chlorophenyl)-3-(3,4-dimethoxyphenyl)-4,5-dihydro-1H-pyrazol-1-yl)methanone]
≥ 50 | COc1ccc(C2=NN(C(=O)c3ccc(Br)o3)C(c3ccccc3F)C2)cc1OC (stereo not shown) [Example 49, (5-bromofuran-2-yl)(3-(3,4-dimethoxyphenyl)-5-(2-fluorophenyl)-4,5-dihydro-1H-pyrazol-1-yl)methanone]
